In patent US12503446B2, “Bromodomain inhibitors” (FORSCHUNGSZENTRUM JÜLICH GMBH, priority 2019, dated 2025):
“Also recorded” adds a separate entry of the source.

Key:
[1] = tested on: erythroleukaemia cell line HEL (JAK2V617F-positive); assay: MTT assay, metabolic activity of HEL cells; format: cell-based; details: 72 h; for effect on metabolic activity of HEL cells (in words): concentrations up to 20 μM
Experimental: (§1) All studies with the HEL, Molm-14 and K562 cell lines mentioned (sourced from DSMZ: ACC-11, ACC-10 and ACC-777) were conducted under germ-free conditions under a sterile hood. Incubation was effected at 37° C. in an incubator at a CO2 saturation of 5%. For the passage of the suspension cells, the cells were transferred in a Falcon prefilled with PBS (phosphate buffered saline) and centrifuged at 1200 rpm for 5 min. All three cell lines were cultured in RPMI-1640 medium (Gibco, Thermo Fischer Scientific, Darmstadt, Germany) with 10% FCS and 1% penicillin streptomycin.
(§2) The viability and metabolic activity of the cells were measured by the MTT assay. Yellow, water-soluble MTT (3-([…])-2,5-diphenyltetrazolium bromide) is a tetrazolium salt which is reduced to dark blue formazan in living cells. Insoluble formazan is released by addition of isopropanol-HCl, and its intensity can be determined by photometry at a wavelength of 550 nm. Thus, the proportion of living cells is measured by comparison with a particular control sample. The cells were counted and washed with PBS, and 30 000 cells per well were sown in triplicates in a 96-well plate. For the inhibitor treatment, the stated final concentrations were used. For this purpose, 10 µl of the appropriate inhibitor dilution was introduced into the 96-well plates, and then 90 μl of cell suspension was pipetted in. The plates were incubated in an incubator for 72 h (37° C., 5% CO2). After the incubation, 10 μl of MTT solution (5 mg/ml) was applied to the wells with a multichannel pipette and thoroughly resuspended. This was followed by incubation for 4 h in the dark at room temperature. Subsequently, the cells were resuspended in 100 μl of isopropanol-HCl and lysed, and absorption at a wavelength of 550 nm was measured by photometry with a plate reader (Kayto, RT-2100C).
(§3) The erythroleukaemia cell line HEL (JAK2V617F-positive), the AML cell line Molm-14 and the chronic myeloid leukaemia (CML) cell line K562 (BCR-ABL-positive) were used for cell experiments.
(§4) Compounds MF1-R, MF1-S, JHS1-R and JHS1-S were dissolved in DMSO, and each was used in concentrations of 0.1 μM, 1 μM, 10 μM and 20 μM. Correspondingly, DMSO was included in each case as a control treatment, and the metabolic activity thereof was set to 100%. The HEL, Molm-14 and K562 cell lines were treated with the respective compounds in the different concentrations and, after 72 h in culture, the metabolic activity, which gives information about the growth of the cells, was determined by means of MTT [3-(4,5-dimethylthiazol-2-yl)-2,5-diphenyltetrazolium bromide] assay.

[2] = tested on: AML cell line Molm-14; assay: MTT assay, metabolic activity of Molm-14 cells; format: cell-based; details: 72 h; for effect on metabolic activity of Molm-14 cells (in words): concentrations up to 20 μM
Experimental: as §1, §2, §3, §4

[3] = tested on: PBMC or CD34+ cells from healthy donors; assay: CFU assay, healthy controls; format: cell-based, human
Experimental: With the aid of the CFU assay, it is possible to determine the colony-forming capacity of individual cells in a semisolid methylcellulose medium (MethoCult H4434, StemCell Technologies, Cologne, Germany). The number of colonies was determined after 7-11 days.
CD34+ cells (G-CSF mobilized from stem cell donors) from healthy donors: 2×10^4 cells/ml; PBMCs from the healthy subjects: 4×10^5 cells/ml.
For this purpose, mononuclear cells (PBMC: mononuclear cells from peripheral blood) or CD34-positive stem cells (CD34+ cells) were isolated from the blood of four healthy controls and three AML or MPN patients and introduced into semisolid medium, to each of which 1 μM or 5 μM of MFS-2 or PFI-1 have been added. Individual cells in the CFU assay form cell colonies in culture after 12 days, unless the formation thereof is prevented by inhibitors.

[4] = tested on: proteins from the BET family; assay: Thermal shift assay (BromoMELT assay), BET family; format: binding; details: 10 μM, duplicates, versus DMSO control; apart from BRDT-2
Experimental: (§5) The experiment was conducted in duplicates at a concentration of 10 μM.

[5] = tested on: BRD2; assay: Thermal shift assay (BromoMELT assay), BRD2; format: binding; details: 10 μM, duplicates, versus DMSO control
Experimental: as §5

[6] = tested on: haematopoietic cell lines, erythroleukaemia and AML cell lines; assay: Inhibitory activity in haematopoietic cell lines (summary statements); format: cell-based; details: for activity relative to PFI-1 in haematopoietic cell lines: racemic mixtures of MF1, MF2, achiral MF3
Experimental: as §1, §2

Compound | effect on metabolic activity of HEL cells (in words) [1] | effect on metabolic activity of Molm-14 cells (in words) [2] | inhibitory activity in haematopoietic / leukaemia cell lines (in words) [6] | further results
CN1Cc2cc(N=S(C)(=Nc3ccccc3)c3ccccc3)ccc2NC1=O (racemic) [JHS1, rac-N-(3-methyl-2-oxo-1,2,3,4-tetrahydroquinazolin-6-yl)-N-phenyl-S-methyl-S-phenylsulfonediimide] | reduced the metabolic activity of HEL and Molm-14 cells at concentrations of 10 and 20 μM; also recorded: achieved inhibition of the metabolic activity of HEL and Molm-14 cells at concentrations of 10 and 20 μM | reduced the metabolic activity of HEL and Molm-14 cells at concentrations of 10 and 20 μM; also recorded: achieved inhibition of the metabolic activity of HEL and Molm-14 cells at concentrations of 10 and 20 μM | – | –
COc1ccccc1S(=O)(=O)Nc1ccc2c(c1)CN(C)C(=O)N2 [PFI-1, reference compound] | – | – | – | metabolic activity of HEL cells ([1]; 1 μM, DMSO control set to 100%): 72.95%±12.7; metabolic activity of Molm-14 cells ([2]; 1 μM, DMSO control set to 100%): 80.43%±1.324; colony count, healthy CD34+ controls 3 and 4 ([3]; 1 μM): reduced the colony count of the controls to a lesser degree; colony count, healthy controls 1 (PBMC) and 2 (CD34+ cells) ([3]; 5 μM): likewise reduced the amount of colonies; binding of BET family proteins (ΔTm, in words) [4]: specifically bind proteins of the BET family; binding of BRD2 (ΔTm, in words) [5]: stronger binding of BRD2
COc1ccccc1[S@](C)(=O)=Nc1ccc2c(c1)CN(C)C(=O)N2 [MF1-S, (S)—N-(3-methyl-2-oxo-1,2,3,4-tetrahydroquinazolin-6-yl)-S-(2-methoxyphenyl)-S-methylsulfoximine] | comparable effect on the metabolic activity of HEL and Molm-14 cells to PFI-1 | comparable effect on the metabolic activity of HEL and Molm-14 cells to PFI-1 | – | –
COc1ccccc1S(C)(=O)=Nc1ccc2c(c1)CN(C)C(=O)N2 (racemic) [MF1, rac-N-(3-methyl-2-oxo-1,2,3,4-tetrahydroquinazolin-6-yl)-S-(2-methoxyphenyl)-S-methylsulfoximine] | – | – | marked inhibitory activity; also recorded: showed inhibitory activity | activity relative to PFI-1 in haematopoietic cell lines [6]: at a comparable level to PFI-1
CN1Cc2cc(N=[S@](C)(=Nc3ccccc3)c3ccccc3)ccc2NC1=O [JHS1-S, (S)—N-(3-methyl-2-oxo-1,2,3,4-tetrahydroquinazolin-6-yl)-N-phenyl-S-methyl-S-phenylsulfonediimide] | comparable effect on the metabolic activity | comparable effect on the metabolic activity | – | –
CN=S(C)(=Nc1ccc2c(c1)CN(C)C(=O)N2)c1ccccc1 (racemic) [JHS3, rac-N-(3-methyl-2-oxo-1,2,3,4-tetrahydroquinazolin-6-yl)-N-methyl-S-methyl-S-phenylsulfonediimide] | inactive | inactive | minor inhibitory activity | –
COc1ccccc1[S@@](C)(=O)=Nc1ccc2c(c1)CN(C)C(=O)N2 [MF1-R, (R)—N-(3-methyl-2-oxo-1,2,3,4-tetrahydroquinazolin-6-yl)-S-(2-methoxyphenyl)-S-methylsulfoximine] | virtually inactive | virtually inactive | minor inhibitory effect | –
CN1Cc2cc(N=S(C)(=O)c3ccccc3)ccc2NC1=O (racemic) [MF2, rac-N-(3-methyl-2-oxo-1,2,3,4-tetrahydroquinazolin-6-yl)-S-methyl-S-phenylsulfoximine] | reduced the metabolic activity of HEL and Molm-14 cells at concentrations of 10 and 20 μM | reduced the metabolic activity of HEL and Molm-14 cells at concentrations of 10 and 20 μM | marked inhibitory activity | activity relative to PFI-1 in haematopoietic cell lines [6]: at a comparable level to PFI-1
CN1Cc2cc(N=S(=O)(c3ccccc3)c3ccccc3)ccc2NC1=O [MF3, N-(3-methyl-2-oxo-1,2,3,4-tetrahydroquinazolin-6-yl)-S,S-diphenylsulfoximine] | – | – | marked inhibitory activity | activity relative to PFI-1 in haematopoietic cell lines [6]: at a comparable level to PFI-1
CN1Cc2cc(N=[S@](C)(=O)c3ccccc3)ccc2NC1=O [MF2-R, (R)—N-(3-methyl-2-oxo-1,2,3,4-tetrahydroquinazolin-6-yl)-S-Methyl-S-Phenylsulfoximine] | lost inhibitory activity compared to MF2 | lost inhibitory activity compared to MF2 | showed inhibition of the cell proliferation of leukaemia cell lines | –
CN1Cc2cc(N=[S@@](C)(=Nc3ccccc3)c3ccccc3)ccc2NC1=O [JHS1-R, (R)—N-(3-methyl-2-oxo-1,2,3,4-tetrahydroquinazolin-6-yl)-N′-phenyl-S-methyl-S-phenylsulfonediimide] | – | – | almost the same level of inhibitory action | –
CN1Cc2cc(N=S(C)(=N)c3ccccc3)ccc2NC1=O (racemic) [JHS2, rac-N-(3-methyl-2-oxo-1,2,3,4-tetrahydroquinazolin-6-yl)-N′—H—S-methyl-S-phenylsulfonediimide] | inactive | inactive | minor inhibitory activity | –
